Results taken from patent publication US8933065B2, “N-benzylamide substituted derivatives of 2-(acylamido)acetic acid and 2-(acylamido)propionic acids: potent neurological agents” (The University of North Carolina at Chapel Hill, priority 2008, dated 2015).
Read-outs that look alike come from different tables or passages of the source.

Columns and labels:
[1] = test system: maximal electroshock (MES)-induced seizures; assay: Maximal electroshock seizure (MES) test, mice (ip); assay type: in vivo; conditions: mice, ip
Protocol: (§2) The maximal electroconvulsive shock (MES) test is regarded as a standard screen for anticonvulsant activity in terms of inhibition of seizure spread in generalized tonic-clonic seizures.
(§3) Groups of at least 8 male albino CF No. 1 mice or male albino Sprague-Dawley rats are treated with 10 mL/kg i.p. or 4 mL/kg p.o. of the test compound solution, respectively. The electrical stimulus in the MES test is 50 mA at 60 Hz for mice and 150 mA at 60 Hz for rats, both delivered for 0.2 sec. Abolition of the hind leg tonic extensor component of the seizure is used as the endpoint.

[2] = test system: maximal electroshock (MES)-induced seizures; conditions: mice, ip; Table 3, Ref 30, 16, 32; cited from earlier work
behavioral toxicity [3] = conditions: rat, po; Table 3, Ref 16, 32; cited from earlier work
[4] = test system: maximal electroshock (MES)-induced seizures; assay: Maximal electroshock seizure (MES) test, rat (po); assay type: in vivo; conditions: for MES, ED50: rat, time (h) in brackets, Table 2
Protocol: as §2, §3

6 Hz seizures = assay: 6 Hz seizure model, mice (ip); assay type: in vivo; conditions: mice, ip
[5] = test system: neurologic toxicity (rotorod test); assay: Neurologic toxicity, rotorod test, mice (ip); assay type: in vivo; conditions: rotorod test
Protocol: (§1) Tests are conducted in groups of at least 8 mice or rats to determine the intrinsic neurotoxicity (neuromuscular impairment) after administration of the test compound by the route of administration to be used in the pharmacology studies. Neurotoxicity is determined in male CF No 1 mice by the rotarod procedure. Inability of the mouse to maintain its equilibrium in 3 trials during 1 min on this rotating rod (6 rpm) is used as an indication of such impairment. In Sprague-Dawley rats, minimal motor impairment (MMI) is determined by overt evidence of ataxia, abnormal gait, and stance.

behavioral toxicity [6] = assay: Toxicity (behavioral toxicity), rat (po); assay type: in vivo
Protocol: as §1

[7] = test system: maximal electroshock (MES)-induced seizures; conditions: rat, po; Table 3, Ref 16, 32; cited from earlier work
[8] = test system: mechanical allodynia after partial sciatic nerve ligation; assay: Partial sciatic nerve ligation model, rats (ip); assay type: in vivo; conditions: dose 12, p < 0.05
[9] = test system: hippocampal kindled seizures; assay: Hippocampal kindling test, rats; assay type: in vivo; conditions: for Preliminary Hippocampal Kindling Test, After discharge duration, Drug / Preliminary Hippocampal Kindling Test, Seizure Score, Drug: rats; for Preliminary Hippocampal Kindling Test, Seizure Score, Drug: after drug (pre-drug score 4-5)
Protocol: The kindling model provides a tool to predict a test compound's activity in complex partial seizures.
Male albino Sprague-Dawley rats (n=8) are kindled to a Stage 5 behavioral seizure. They are treated with an appropriate i.p. dose of the test compound after a 1-week, stimulus-free period. The test compound is evaluated for its effect on kindled motor seizures (seizures scores of 4 and 5), limbic behavior seizures (seizure scores between 1 and 3) and after-discharge duration. After 15 min, each rat is stimulated every 30 min for 3-4 h. Following each stimulation, individual seizure scores and after-discharge duration are recorded. The group mean and standard error of the mean (SEM) are calculated for each parameter.

[10] = test system: neurologic toxicity (rotorod test); conditions: mice, ip, Table 3, Ref 30, 16, 32; cited from earlier work
[11] = time (h) in brackets, Table 2, footnotes not given
[12] = time (h) in brackets, (X′—Y′—Z′ group)
[13] = behavioral toxicity, Table b607

## CC(=O)N[C@@H](C)C(=O)NCc1ccccc1 [(S)-4, reference compound]
[1]; 95% confidence intervals in parentheses, Table 1
  MES, ED50: 550 (460-740) mg/kg
[2]
  MES, ED50: 8.0 milligrams per kilogram

## CCC1(c2ccccc2)C(=O)NC(=O)NC1=O [Phenobarbital, reference compound]
[1]; [11]
  MES, ED50: 22 [1]
Behavioral toxicity [3]
  Tox, TD50: 61 [0.5] milligrams per kilogram

## COC[C@@H](NC(C)=O)C(=O)NCc1ccc(OCc2cccc(F)c2)cc1 [(R)-10, (R)-2-Acetamido-N-(4-(3-fluorobenzyloxy)benzyl)-3-methoxypropanamide]
[1]; [12]
  MES, ED50: 13 [0.25] milligrams per kilogram
[1]; time (h) in brackets, (terminal ring group)
  MES, ED50: 13 [0.25] milligrams per kilogram
[1]; time (h) in brackets, Table 3, NINDS ASP
  MES, ED50: 13 [0.25] milligrams per kilogram
[4]
  MES, ED50: 4.9 [1]
6 Hz seizures; Table 3
  6 Hz, ED50: ~10 [0.25] milligrams per kilogram
6 Hz seizures; Table b607
  6 Hz, ED50: ~10 [0.25] milligrams per kilogram
6 Hz seizures; Table b608
  6 Hz, ED50: ~10 [0.25] milligrams per kilogram
[5]; Table 3
  Tox, TD50: 26 [0.5] milligrams per kilogram
[5]; Table b607
  Tox, TD50: 26 [0.5] milligrams per kilogram
[5]; Table b608
  Tox, TD50: 26 [0.5] milligrams per kilogram
Behavioral toxicity [6]; behavioral toxicity, Table 3
  Tox, TD50: >500 [0.5] milligrams per kilogram
Behavioral toxicity [6]; [13]
  Tox, TD50: >500 [0.5] milligrams per kilogram
Behavioral toxicity [6]; behavioral toxicity, Table b608
  Tox, TD50: >500 [0.5] milligrams per kilogram
Behavioral toxicity [6]; time (h) in brackets, Table 2
  Tox, TD50: > 280 mg/kg

## COC[C@@H](NC(C)=O)C(=O)NCc1ccc(Oc2cccc(F)c2)cc1 [(R)-12, (R)—N-4′-((3″-Fluoro)phenoxy)benzyl 2-N-Acetamido-3-methoxypropionamide]
[1]; [12]
  MES, ED50: 5.5 [0.25] (3.2-6.3) milligrams per kilogram
[4]; Rattus norvegicus, read-out: MES, ED50, rat, po
  ED50: < 10 mg/kg
6 Hz seizures; Table b607
  6 Hz, ED50: ~10 [0.5] milligrams per kilogram
[5]; Table b607
  Tox, TD50: 23 [0.25] (18-28) milligrams per kilogram
Behavioral toxicity [6]; [13]
  Tox, TD50: >10 [0.25-4.0] milligrams per kilogram

## CCCC(CCC)C(=O)O [valproate]
[1]; [11]
  MES, ED50: 270 [0.25]
[4]
  MES, ED50: 490 [0.5]
[2]
  MES, ED50: 270 [0.25] milligrams per kilogram
[7]
  MES, ED50: 490 [0.5] milligrams per kilogram

## COC[C@@H](NC(C)=O)C(=O)NCc1ccc(OCc2cccc(F)c2)cc1 [(R)-3, (R)-2-Acetamido-N-(4-(3-fluorobenzyloxy)benzyl)-3-methoxypropanamide]
[1]; Mus musculus, time (h) in brackets, Table 2, footnotes not given
  ED50: 13 mg/kg
[8]
  fold attentaution of mechanical allodynia at 1 h: 11.2 fold attentaution of mechanical
[9]; Rattus norvegicus, ip, read-out: Hippocampal Kindled Rats (ip) ED50 (inteval)
  ED50: 12 mg/kg
[9]
  Preliminary Hippocampal Kindling Test, After discharge duration, Drug: 0 s
  Preliminary Hippocampal Kindling Test, Seizure Score, Drug: 0

## O=C1NC(=O)C(c2ccccc2)(c2ccccc2)N1 [phenytoin, reference compound]
[4]
  MES, ED50: 30 [4]
Behavioral toxicity [6]; time (h) in brackets, Table 2
  Tox, TD50: ^hNo ataxia observed up to 3000 mg/kg.
[9]
  Preliminary Hippocampal Kindling Test, After discharge duration, Drug: 51 s
  Preliminary Hippocampal Kindling Test, Seizure Score, Drug: 3
[7]
  MES, ED50: 30 [4.0] milligrams per kilogram
[10]
  Tox, TD50: 66 [2.0] milligrams per kilogram
